Experimental data from US20230399295A1, “COMPOSITIONS FOR INCREASING TISSUE REGENERATION AND DELAYING OR REDUCING GRANULOMA FORMATION” (THE BRIGHAM AND WOMEN'S HOSPITAL, INC., priority 2020, published 2023).

Legend:
[1] = test system: human PBMCs; assay: Granuloma assay: human PBMCs with E. coli total protein extract-coupled sepharose beads; assay type: cell-based; conditions: single treatment 10 nM at time 0; scoring 0-4 at day 3; versus vehicle
Procedure: FIG. 3: Resolvin (Rv) Peptido-Lipids Delay Human Granuloma Formation. Freshly isolated human PBMCs were incubated with E. coli total protein extract covalently coupled CNBr-activated sepharose beads and received a single treatment of either vehicle (0.1% methanol or ethanol), 10 nM RvD3, 10 nM RCTR1, or 10 nM 4,5-RCTR1 at time 0 and incubated for 6 days. A) Scoring of day 3 granuloma severity post-single treatment with either vehicle (0.1% methanol or ethanol), 10 nM RvD3, 10 nM RCTR1, or 10 nM 4,5-RCTR1. n=3 individual human donors. Mean±SEM. Unpaired two-tailed Student's t-test. **p<0.01, ***p<0.001 versus vehicle. B) Representative images of granuloma formation on day 3 after a single treatment with either vehicle (0.1% methanol or ethanol), 10 nM RvD3, 10 nM RCTR1, or 10 nM 4,5-RCTR1. […]
E. coli (Serotype: 06:K2:H1) was grown overnight in Luria broth in an orbital shaker (400 rpm) at 37° C. […] Supernatant was taken before and after the coupling reaction and measured for protein content by BCA assay (Thermo Fisher Scientific) to determine the efficiency of the reaction. […]
Freshly isolated PBMCs (1×10^6 cells/well) were treated with either vehicle (0.1% ethanol), RvD3 (10 nM), RCTR1 (10 nM) or 4,5-RCTR1 (10 nM) and E. coli total protein lysate-coated CNBr-activated sepharose beads simultaneously in 1 mL complete RPMI-1640. […] Granulomas were scored based on formation progression. […]

[2] = test system: Planaria (Dugesia japonica); assay: Planaria regeneration after surgical injury; assay type: in vivo
Procedure: Planaria were surgically injured post-ocular and received either vehicle (0.1% ethanol) or 10 nM 4,5-RCTR1 one-hour post-injury and imaged daily for six days. A) Representative images of Planaria regeneration from Day 1-6 post-surgical injury. B) Tissue regeneration indices (μm) from Day 1-6 post-surgically injured Planaria. C) Tissue regeneration rate (TRR, μm/day) is the rate (area of tissue regeneration/days at TRI50) to achieve 50% tissue regeneration after surgical injury. n=6 Planaria per group per day. Data represented as mean±SEM. Unpaired two-tailed Student's t-test. *p<0.05, **p<0.01, ***p<0.001, and ****p<0.0001 versus vehicle. Planaria (Dugesia japonica) were kept in water (Poland Spring, Poland, ME) at 20° c. All animals were starved for 7 days prior to surgery. Planaria were surgically injured post-ocularly and received either vehicle (0.1% ethanol) or 10 nM 4,5-RCTR1 in water one-hour post-injury. Tissue regeneration was monitored daily for six days via a Zeiss Axiovert 40 CFL Microscope (Jena, Germany) equipped with a Lumenera Infinity 3 Camera (Ottawa, Canada) running Image-Pro Plus (Version 7.0.0.591, Media Cybernetics, Rockville, MD, USA). Regenerated tissue was quantified using ImageJ software (NIH). The tissue regeneration index (TRI) normalizes the total area of regenerated tissue by the post-ocular width. The TRI50 is the amount of time it takes to reach 50% of the maximum […]. […] FIGS. 2A, 2B and 2C: Planaria were surgically injured post-ocular and received either vehicle (0.1% ethanol) or 4,5-RCTR1 one-hour post-injury and imaged daily for six days. 2A) Representative images of Planaria regeneration from Day 1-6 post-surgical injury. 2B) Tissue regeneration indices (μm) from Day 1-6 post-surgically injured Planaria. 2C) Tissue regeneration rate (TRR, μm/day) is the rate (area of tissue regeneration/days at TRI50) to achieve 50% tissue regeneration after surgical injury. n=6 Planaria per group per day. Data represented as mean±SEM. Unpaired two-tailed Student's t-test. *p<0.05, **p<0.01, ***p<0.001, and ****p<0.0001 versus vehicle.

[3] = Half-life in the body (statement only, no method); conditions: in vivo

For CC/C=C\C[C@H](O)/C=C/C=C\C\C=C/C=C/C=C/[C@@H](SC[C@H](NC(=O)CC[C@H](N)C(=O)O)C(=O)NCC(=O)O)[C@@H](O)CCC(=O)O [4,5-RCTR1, 5-glutathionyl, 4,17-hydroxy-docosahexaenoic acid], the granuloma formation [1] was “significantly delays granuloma formation”, the “amount of tissue regenerated” value ([2]; in vivo) was “increases the amount of tissue regenerated” and the “time required for tissue regeneration” value ([2]; in vivo) was “accelerates the time required for tissue regeneration”. The “regenerative action / planaria regeneration” value ([2]; surgically injured post-ocular, 10 nM one-hour post-injury, imaged daily for six days, versus vehicle) was “regenerative action” and the “half-life in the body” value [3] was “relatively sort half-life”.
